± gives the expanded uncertainty stated by the source.
Experiment: excess molar enthalpy (molar enthalpy of mixing); xn = mol fraction of the nth substance listed
Settings: Liquid, Flow calorimetry

CCOC(=O)CC(C)=O [ethyl 3-oxobutanoate] + CO
excess molar enthalpy [kcal/mol]
Settings | 298.15 K | 313.15 K | 328.15 K
100 kPa, x1 = 0.0998 | 0.12 ± 0.00263 | 0.135 ± 0.00311 | 0.146 ± 0.00335
100 kPa, x1 = 0.2002 | 0.202 ± 0.0043 | 0.227 ± 0.00502 | 0.244 ± 0.00526
100 kPa, x1 = 0.2994 | 0.256 ± 0.0055 | 0.285 ± 0.00621 | 0.309 ± 0.00669
100 kPa, x1 = 0.3505 | 0.274 ± 0.00598 | 0.305 ± 0.00645 | 0.332 ± 0.00717
100 kPa, x1 = 0.3995 | 0.287 ± 0.00621 | 0.318 ± 0.00693 | 0.346 ± 0.00741
100 kPa, x1 = 0.4495 | 0.295 ± 0.00621 | 0.326 ± 0.00693 | 0.354 ± 0.00765
100 kPa, x1 = 0.4998 | 0.298 ± 0.00645 | 0.33 ± 0.00717 | 0.357 ± 0.00765
100 kPa, x1 = 0.5495 | 0.296 ± 0.00621 | 0.326 ± 0.00693 | 0.352 ± 0.00765
100 kPa, x1 = 0.5997 | 0.288 ± 0.00621 | 0.318 ± 0.00693 | 0.341 ± 0.00741
100 kPa, x1 = 0.65 | 0.275 ± 0.00598 | 0.304 ± 0.00645 | 0.323 ± 0.00693
100 kPa, x1 = 0.6995 | 0.257 ± 0.0055 | 0.279 ± 0.00598 | 0.299 ± 0.00645
100 kPa, x1 = 0.7994 | 0.199 ± 0.0043 | 0.211 ± 0.00454 | 0.224 ± 0.00502
100 kPa, x1 = 0.8982 | 0.111 ± 0.00263 | 0.115 ± 0.00263 | 0.12 ± 0.00287
10000 kPa, x1 = 0.0996 | 0.116 ± 0.00263 | 0.133 ± 0.00311 | 0.145 ± 0.00335
10000 kPa, x1 = 0.1999 | 0.197 ± 0.0043 | 0.225 ± 0.00502 | 0.244 ± 0.00526
10000 kPa, x1 = 0.299 | 0.248 ± 0.00526 | 0.283 ± 0.00598 | 0.309 ± 0.00669
10000 kPa, x1 = 0.35 | 0.265 ± 0.00574 | 0.303 ± 0.00645 | 0.331 ± 0.00717
10000 kPa, x1 = 0.399 | 0.276 ± 0.00598 | 0.317 ± 0.00693 | 0.346 ± 0.00741
10000 kPa, x1 = 0.449 | 0.283 ± 0.00598 | 0.325 ± 0.00693 | 0.354 ± 0.00765
10000 kPa, x1 = 0.4993 | 0.286 ± 0.00621 | 0.329 ± 0.00693 | 0.356 ± 0.00765
10000 kPa, x1 = 0.5489 | 0.283 ± 0.00598 | 0.324 ± 0.00693 | 0.352 ± 0.00765
10000 kPa, x1 = 0.5992 | 0.274 ± 0.00598 | 0.317 ± 0.00669 | 0.341 ± 0.00717
10000 kPa, x1 = 0.6495 | 0.261 ± 0.00574 | 0.301 ± 0.00645 | 0.322 ± 0.00693
10000 kPa, x1 = 0.699 | 0.242 ± 0.00526 | 0.273 ± 0.00598 | 0.297 ± 0.00645
10000 kPa, x1 = 0.799 | 0.182 ± 0.00406 | 0.209 ± 0.00454 | 0.222 ± 0.00478
10000 kPa, x1 = 0.898 | 0.0986 ± 0.00232 | 0.113 ± 0.00263 | 0.118 ± 0.00287

CCOC(=O)CC(C)=O [ethyl 3-oxobutanoate] + CC(C)O
excess molar enthalpy [kcal/mol]
Settings | 298.15 K | 313.15 K | 328.15 K
100 kPa, x1 = 0.0997 | 0.236 ± 0.00526 | 0.266 ± 0.00598 | 0.283 ± 0.00621
100 kPa, x1 = 0.1998 | 0.369 ± 0.00813 | 0.422 ± 0.00908 | 0.454 ± 0.0098
100 kPa, x1 = 0.2999 | 0.446 ± 0.00956 | 0.518 ± 0.011 | 0.556 ± 0.012
100 kPa, x1 = 0.3499 | 0.472 ± 0.01 | 0.547 ± 0.0117 | 0.586 ± 0.0124
100 kPa, x1 = 0.4003 | 0.488 ± 0.0105 | 0.565 ± 0.0122 | 0.605 ± 0.0129
100 kPa, x1 = 0.4496 | 0.496 ± 0.0105 | 0.574 ± 0.0122 | 0.612 ± 0.0131
100 kPa, x1 = 0.5003 | 0.498 ± 0.0108 | 0.573 ± 0.0122 | 0.61 ± 0.0129
100 kPa, x1 = 0.5494 | 0.491 ± 0.0105 | 0.562 ± 0.012 | 0.597 ± 0.0127
100 kPa, x1 = 0.5995 | 0.476 ± 0.0103 | 0.543 ± 0.0117 | 0.573 ± 0.0122
100 kPa, x1 = 0.6505 | 0.452 ± 0.0098 | 0.513 ± 0.011 | 0.538 ± 0.0115
100 kPa, x1 = 0.7008 | 0.42 ± 0.00908 | 0.473 ± 0.0103 | 0.494 ± 0.0105
100 kPa, x1 = 0.7999 | 0.328 ± 0.00717 | 0.359 ± 0.00789 | 0.373 ± 0.00813
100 kPa, x1 = 0.9006 | 0.185 ± 0.0043 | 0.198 ± 0.00454 | 0.203 ± 0.00478
10000 kPa, x1 = 0.0994 | 0.231 ± 0.00502 | 0.26 ± 0.00574 | 0.276 ± 0.00621
10000 kPa, x1 = 0.1993 | 0.358 ± 0.00789 | 0.409 ± 0.00884 | 0.447 ± 0.00956
10000 kPa, x1 = 0.2992 | 0.435 ± 0.00932 | 0.498 ± 0.0108 | 0.548 ± 0.0117
10000 kPa, x1 = 0.3491 | 0.459 ± 0.0098 | 0.527 ± 0.0112 | 0.578 ± 0.0124
10000 kPa, x1 = 0.3995 | 0.477 ± 0.0103 | 0.544 ± 0.0117 | 0.597 ± 0.0127
10000 kPa, x1 = 0.4488 | 0.485 ± 0.0103 | 0.553 ± 0.0117 | 0.604 ± 0.0129
10000 kPa, x1 = 0.4995 | 0.487 ± 0.0105 | 0.551 ± 0.0117 | 0.602 ± 0.0129
10000 kPa, x1 = 0.5486 | 0.482 ± 0.0103 | 0.541 ± 0.0115 | 0.59 ± 0.0127
10000 kPa, x1 = 0.5987 | 0.468 ± 0.01 | 0.522 ± 0.0112 | 0.566 ± 0.0122
10000 kPa, x1 = 0.6497 | 0.447 ± 0.00956 | 0.491 ± 0.0105 | 0.532 ± 0.0115
10000 kPa, x1 = 0.7001 | 0.417 ± 0.00884 | 0.452 ± 0.0098 | 0.487 ± 0.0105
10000 kPa, x1 = 0.7994 | 0.326 ± 0.00717 | 0.342 ± 0.00741 | 0.367 ± 0.00789
10000 kPa, x1 = 0.9003 | 0.184 ± 0.0043 | 0.187 ± 0.0043 | 0.199 ± 0.00454
